For one experiment, the target named is IKZF1 (Homo sapiens (Human), UniProt Q13422+Q96SW2). The experiment in a line: In vitro IKZF1 HiBit Assay (HEK293T Flp-in-HiBiT-IKZF1 stable cell line). As to conditions: HEK293T Flp-in-HiBiT-IKZF1 stable cell line, 6 hrs incubation; for DC50: read-out: IKZF1 HiBit DC50; for Dmax: HEK-293T, read-out: IKZF1 HiBit Dmax (%). The class given is cell-based. As for the experimental part:
In Vitro IKZF1 HiBit Assay
The HiBiT protein tagging system was applied to modified Cells: modified HEK293T Flp-in-HiBiT-IKZF1 stable cell line (polyclone) via a CRISPR/Cas9-mediated insertion of the HiBiT peptide tag (Promega™) to the N-terminus of the […] gene locus (Neon™ transfection system).
25 nL of diluted compound is transferred to assay plates (Corning3571) using ECHO550, the final DMSO concentration @ 0.1%. The cells are seeded in 3000/25 μL/well to compound plates. The plates are incubated for 6 hrs in TC incubator. The amount of Nano-Glo® HiBiT lytic reagent needed to perform the desired experiments is calculated. The Nano-Glo® HiBiT lytic reagent is brought to room temperature. The LgBiT protein is diluted to 1:100 and the Nano-Glo® HiBiT lytic substrate is brought to 1:50 into an appropriate volume of room temperature Nano-Glo® HiBiT lytic buffer. 15 μL of the detection reagent (or without LgBiT) is dispensed to corresponding well according to the layout. The plate is shaked for 10 mins at room temperature. After briefly centrifuge, the plateis read on Envision. At the indicated timepoints, the Nano-Glo® HiBiT lytic detection system (Promega™) was utilized for detecting bioluminescence of the HiBiT tag in treated cells: abundance of the tag is proportionate to the level of luminescence. Following normalization to DMSO, dose-response curves were plotted (GraphPad Prism) to determine the concentration points at which 50% of HiBiT-Ikaros degradation was achieved by each compound. The extent of degradation (range of luminescence) from the highest to lowest concentration points was calculated to determine the Dmax.
(§1) DC50, A: <1 nM; B: 1-10 nM; C: 10-100 nM; D: 100-1000 nM; E: 1000-10000 nM; F: >10,000 nM. Dmax, A: >80%; B: 60-80%; C: 40-60%; D: 20-40%; E: <20%.
A general note: With HiBiT, luminescence reflects the tagged protein that the partner subunit can reach.

For another experiment, the target named is IKZF2 (Homo sapiens (Human), UniProt Q96SW2+Q9UKS7). Kind of experiment: In vitro IKZF2 HiBit Assay (HEK293T Flp-in-HiBiT cells). The class given is cell-based. The note with it: HEK293T Flp-in-HiBiT cells, 6 hrs incubation; for DC50: read-out: IKZF2 HiBit DC50; for Dmax: HEK-293T, read-out: IKZF2 HiBit Dmax (%). As for the experimental part: In Vitro IKZF2 HiBit Assay
The HiBiT protein tagging system was applied to modified HEK293T Flp-in-HiBiT cells (polyclone) via a CRISPR/Cas9-mediated insertion of the HiBiT peptide tag (Promega™) to the N-terminus of the IKZF2 gene locus (Neon™ transfection system). Test and reference compounds are diluted from 1 mM at 3 folds for 11 doses. 25 nL of diluted compound is transfered to assay plates (Corning3570) using ECHO550, the final DMSO concentration @ 0.1%. The cells are seeded in 3000/25 μL/well to compound plates. It is then incubated for 6 hrs in TC incubator. The amount of Nano-Glo® HiBiT lytic reagent needed to perform the desired experiments is calculated. The Nano-Glo® HiBiT lytic reagent is brought to room temperature. The LgBiT protein is diluted to 1:100 and the Nano-Glo® HiBiT lytic substrate is diluted to 1:50 into an appropriate volume of room temperature Nano-Glo® HiBiT lytic buffer. 15 μL of the detection reagent (or without LgBiT) is dispensed to corresponding well according to the layout. The plate is then shaked for 10 mins at room temperature. After briefly centrifuge, the plate is read on Envision. At the indicated timepoints, the Nano-Glo® HiBiT lytic detection system (Promega™) was utilized for detecting bioluminescence of the HiBiT tag in treated cells: abundance of the tag is proportionate to the level of luminescence. Following normalization to DMSO, dose-response curves were plotted (GraphPad Prism) to determine the concentration points at which 50% of HiBiT-Helios degradation was achieved by each compound. The extent of degradation (range of luminescence) from the highest to lowest concentration points was calculated to determine the Dmax.
as §1

Chain of IKZF1 (Q13422 whole entry): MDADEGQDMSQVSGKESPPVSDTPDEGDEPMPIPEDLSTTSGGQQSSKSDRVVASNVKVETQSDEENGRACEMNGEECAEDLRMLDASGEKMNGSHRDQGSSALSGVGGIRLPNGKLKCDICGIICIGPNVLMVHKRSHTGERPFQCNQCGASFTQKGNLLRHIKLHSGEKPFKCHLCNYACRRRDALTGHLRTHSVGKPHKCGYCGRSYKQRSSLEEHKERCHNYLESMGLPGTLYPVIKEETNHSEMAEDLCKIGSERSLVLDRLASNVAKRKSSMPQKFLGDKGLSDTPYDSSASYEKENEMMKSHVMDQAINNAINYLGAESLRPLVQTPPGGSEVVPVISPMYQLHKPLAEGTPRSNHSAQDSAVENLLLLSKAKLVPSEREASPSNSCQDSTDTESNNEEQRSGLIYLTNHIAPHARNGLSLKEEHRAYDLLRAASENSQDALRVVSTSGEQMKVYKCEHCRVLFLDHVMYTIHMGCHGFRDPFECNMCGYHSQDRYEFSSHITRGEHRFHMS
Chain of IKZF1 (Q96SW2 whole entry): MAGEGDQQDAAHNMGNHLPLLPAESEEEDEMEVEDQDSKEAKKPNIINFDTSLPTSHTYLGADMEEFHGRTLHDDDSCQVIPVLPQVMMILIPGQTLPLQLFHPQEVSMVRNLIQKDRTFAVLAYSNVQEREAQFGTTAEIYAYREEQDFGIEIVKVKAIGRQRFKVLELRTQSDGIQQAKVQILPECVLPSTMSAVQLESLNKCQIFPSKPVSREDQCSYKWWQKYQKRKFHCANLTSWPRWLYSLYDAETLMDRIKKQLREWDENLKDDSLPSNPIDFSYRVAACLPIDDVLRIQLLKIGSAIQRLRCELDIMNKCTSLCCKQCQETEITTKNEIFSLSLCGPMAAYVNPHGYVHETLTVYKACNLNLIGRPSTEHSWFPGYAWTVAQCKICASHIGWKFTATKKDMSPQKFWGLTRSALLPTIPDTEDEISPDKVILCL
Chain of IKZF1 (Q16531 2-1140 partner): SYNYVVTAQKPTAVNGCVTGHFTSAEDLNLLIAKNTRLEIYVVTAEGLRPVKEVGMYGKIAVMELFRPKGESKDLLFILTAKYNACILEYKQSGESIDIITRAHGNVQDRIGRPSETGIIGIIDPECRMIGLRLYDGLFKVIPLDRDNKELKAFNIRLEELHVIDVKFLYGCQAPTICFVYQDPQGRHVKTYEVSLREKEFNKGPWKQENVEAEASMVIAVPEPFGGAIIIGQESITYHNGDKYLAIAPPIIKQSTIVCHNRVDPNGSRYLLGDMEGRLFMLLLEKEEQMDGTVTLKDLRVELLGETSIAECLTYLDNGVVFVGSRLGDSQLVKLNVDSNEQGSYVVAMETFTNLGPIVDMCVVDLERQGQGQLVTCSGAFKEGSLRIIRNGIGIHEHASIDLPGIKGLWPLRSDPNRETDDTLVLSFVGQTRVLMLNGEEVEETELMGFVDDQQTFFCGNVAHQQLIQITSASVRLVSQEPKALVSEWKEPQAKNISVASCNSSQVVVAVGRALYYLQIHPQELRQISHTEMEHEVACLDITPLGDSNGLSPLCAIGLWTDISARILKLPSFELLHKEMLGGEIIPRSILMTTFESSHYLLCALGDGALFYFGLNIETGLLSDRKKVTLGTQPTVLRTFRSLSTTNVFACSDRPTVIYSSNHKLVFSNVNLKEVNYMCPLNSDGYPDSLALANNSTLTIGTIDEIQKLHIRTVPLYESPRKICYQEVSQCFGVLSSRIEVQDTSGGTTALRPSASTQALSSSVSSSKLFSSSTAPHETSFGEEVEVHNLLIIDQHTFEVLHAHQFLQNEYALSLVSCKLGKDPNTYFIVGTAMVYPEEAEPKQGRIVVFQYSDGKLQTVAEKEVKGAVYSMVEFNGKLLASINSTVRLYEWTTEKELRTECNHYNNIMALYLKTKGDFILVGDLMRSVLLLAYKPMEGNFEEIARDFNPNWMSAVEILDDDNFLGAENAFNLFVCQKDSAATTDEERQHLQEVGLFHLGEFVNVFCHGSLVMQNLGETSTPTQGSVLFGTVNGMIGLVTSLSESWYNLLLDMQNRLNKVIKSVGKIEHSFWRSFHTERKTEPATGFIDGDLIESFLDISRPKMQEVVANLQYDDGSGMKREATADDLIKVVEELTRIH
Chain of IKZF2 (Q9UKS7 whole entry): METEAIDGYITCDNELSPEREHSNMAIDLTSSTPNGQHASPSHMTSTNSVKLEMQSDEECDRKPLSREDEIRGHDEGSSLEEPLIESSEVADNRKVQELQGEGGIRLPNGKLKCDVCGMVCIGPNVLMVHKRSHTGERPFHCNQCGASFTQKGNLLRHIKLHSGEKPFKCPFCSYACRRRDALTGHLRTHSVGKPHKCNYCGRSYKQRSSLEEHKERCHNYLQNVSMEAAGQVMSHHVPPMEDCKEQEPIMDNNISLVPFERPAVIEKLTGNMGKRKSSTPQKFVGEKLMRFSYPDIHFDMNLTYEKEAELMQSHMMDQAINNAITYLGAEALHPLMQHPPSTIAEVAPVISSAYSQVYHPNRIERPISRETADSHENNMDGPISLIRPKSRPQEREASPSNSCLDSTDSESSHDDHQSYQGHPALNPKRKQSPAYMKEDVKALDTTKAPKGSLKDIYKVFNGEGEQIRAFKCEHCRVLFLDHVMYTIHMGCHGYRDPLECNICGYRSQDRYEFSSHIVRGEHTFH
Chain of IKZF2 (Q96SW2 whole entry): as the sequence (Q96SW2 whole entry) above
Chain of IKZF2 (Q16531 2-1140 partner): as the sequence (Q16531 2-1140 partner) above

On to `O=C1CCC(N2Cc3cc(-c4cc(CN5CCCC5)c5c(C(F)(F)F)n[nH]c5n4)ccc3C2=O)C(=O)N1` (stereo not drawn) [Example 134, 3-(1-oxo-5-(4-(pyrrolidin-1-ylmethyl)-3-(trifluoromethyl)-1H-pyrazolo[3,4-b]pyridin-6-yl)isoindolin-2-yl) piperidine-2,6-dione], for which the DC50 was above 10000 nM at IKZF1 and 1 to 10 nM at IKZF2. For the same compound, the values for the Dmax on IKZF1 and on IKZF2 were below 20% and above 80%, respectively.

For the compound `O=C1CCC(N2Cc3cc(-c4cc(CN5CC(O)C5)c5ccn(C6CC6)c5n4)ccc3C2=O)C(=O)N1` (stereo not drawn) [Example 135, 3-(5-(1-cyclopropyl-4-((3-hydroxyazetidin-1-yl)methyl)-1H-pyrrolo[2,3-b]pyridin-6-yl)-1-oxoisoindolin-2-yl) piperidine-2,6-dione], on IKZF1, the DC50 was above 10000 nM and the Dmax is below 20%. For the same compound, at IKZF2, the DC50 was in the range of 1 to 10 nM and the Dmax was above 80%.

As for `CS(=O)(=O)CCn1ccc2c(CN3CCCC3)cc(-c3ccc4c(c3)CN(C3CCC(=O)NC3=O)C4=O)nc21` (stereo not drawn) [Example 136, 3-(5-(1-(2-(methylsulfonyl)ethyl)-4-(pyrrolidin-1-ylmethyl)-1H-pyrrolo[2,3-b]pyridin-6-yl)-1-oxoisoindolin-2-yl) piperidine-2,6-dione], on IKZF1, the DC50 was above 10000 nM and the Dmax is below 20%. On IKZF2, the DC50 fell in the range of 10 to 100 nM and the Dmax was in the range of 20 to 40%.

In the case of `CC(C)C1CN(Cc2cc(-c3ccc4c(c3)CN(C3CCC(=O)NC3=O)C4=O)nc3[nH]ccc23)CC1O` (stereo not drawn) [Example 137, 3-(5-(4-((3-hydroxy-4-isopropylpyrrolidin-1-yl)methyl)-1H-pyrrolo[2,3-b]pyridin-6-yl)-1-oxoisoindolin-2-yl) piperidine-2,6-dione], the DC50 on IKZF1 lay within 10 to 100 nM; on IKZF2, 1 to 10 nM. Besides, the Dmax at IKZF1 is 20 to 40%; at IKZF2, above 80%.

On to `CC(C)CC1CN(Cc2cc(-c3ccc4c(c3)CN(C3CCC(=O)NC3=O)C4=O)nc3[nH]ccc23)CC1O` (stereo not drawn) [Example 138, 3-(5-(4-((3-hydroxy-4-isobutylpyrrolidin-1-yl)methyl)-1H-pyrrolo[2,3-b]pyridin-6-yl)-1-oxoisoindolin-2-yl) piperidine-2,6-dione], for which, at IKZF1, the DC50 lay in the range of 100 to 1000 nM and the Dmax was 20 to 40%. Moreover, on IKZF2, the DC50 fell in the range of 1 to 10 nM and the Dmax is above 80%.

For `CNC(=O)Cn1ccc2c(CN3CCCC3)cc(-c3ccc4c(c3)CN(C3CCC(=O)NC3=O)C4=O)nc21` (stereo not drawn) [Example 150, 2-(6-(2-(2,6-dioxopiperidin-3-yl)-1-oxoisoindolin-5-yl)-4-(pyrrolidin-1-ylmethyl)-1H-pyrrolo[2,3-b]pyridin-1-yl)-N-methylacetamide], on IKZF1, the DC50 was above 10000 nM and the Dmax was below 20%. In addition, at IKZF2, the DC50 is 10 to 100 nM and the Dmax lay in the range of 60 to 80%.

For `O=C1CCC(N2Cc3cc(-c4cc(CN5CC(CO)C5)c5ccn(C6CC6)c5n4)ccc3C2=O)C(=O)N1` (stereo not drawn) [Example 152, 3-(5-(1-cyclopropyl-4-((3-(hydroxymethyl)azetidin-1-yl)methyl)-1H-pyrrolo[2,3-b]pyridin-6-yl)-1-oxoisoindolin-2-yl) piperidine-2,6-dione], the DC50 lay in the range of 100 to 1000 nM on IKZF1 and 10 to 100 nM at IKZF2. For the same compound, the Dmax on IKZF1 was 20 to 40%; at IKZF2, above 80%.

As to `CC(C)CC1CCN(Cc2cc(-c3ccc4c(c3)CN(C3CCC(=O)NC3=O)C4=O)nc3[nH]ccc23)C1` (stereo not drawn) [Example 153, 3-(5-(4-((3-isobutylpyrrolidin-1-yl)methyl)-1H-pyrrolo[2,3-b]pyridin-6-yl)-1-oxoisoindolin-2-yl) piperidine-2,6-dione], the DC50 on IKZF1 is 10 to 100 nM; at IKZF2 it was below 1 nM. For the same compound, the Dmax at IKZF1 was 40 to 60%; on IKZF2 it was above 80%.

`Cn1nc(N)c2nc(-c3ccc4c(c3)CN(C3CCC(=O)NC3=O)C4=O)cc(CN3CCCC3)c21` (stereo not drawn) [Example 183, 3-(5-(3-amino-1-methyl-7-(pyrrolidin-1-ylmethyl)-1H-pyrazolo[4,3-b]pyridin-5-yl)-1-oxoisoindolin-2-yl) piperidine-2,6-dione]: on IKZF1, the DC50 was in the range of 10 to 100 nM and the Dmax lay within 40 to 60%. Further, on IKZF2, the DC50 fell in the range of 1 to 10 nM and the Dmax is above 80%.

Turning to `Cc1cc(-c2ccc3c(c2)CN(C2CCC(=O)NC2=O)C3=O)nc2oc(CN3CCCC3)nc12` (stereo not drawn) [Example 198, 3-(5-(7-methyl-2-(pyrrolidin-1-ylmethyl)oxazolo [5,4-b]pyridin-5-yl)-1-oxoisoindolin-2-yl) piperidine-2,6-dione], at IKZF1, the DC50 was above 10000 nM and the Dmax is below 20%. In addition, at IKZF2, the DC50 was 10 to 100 nM and the Dmax fell in the range of 40 to 60%.

`O=C1CCC(N2Cc3cc(-c4cc(CN5CCCC5)c5[nH]nc(C6CC6)c5n4)ccc3C2=O)C(=O)N1` (stereo not drawn) [Example 202, 3-(5-(3-cyclopropyl-7-(pyrrolidin-1-ylmethyl)-1H-pyrazolo[4,3-b]pyridin-5-yl)-1-oxoisoindolin-2-yl) piperidine-2,6-dione]: at IKZF1, the DC50 fell in the range of 1 to 10 nM and the Dmax lay in the range of 40 to 60%. On IKZF2, the DC50 fell in the range of 1 to 10 nM and the Dmax is above 80%.

As to `O=C1CCC(N2Cc3cc(-c4cc(CN5CCCC5)c5cccc(C6CCC6)c5n4)ccc3C2=O)C(=O)N1` (stereo not drawn) [Example 241, 3-(5-(8-cyclobutyl-4-(pyrrolidin-1-ylmethyl)quinolin-2-yl)-1-oxoisoindolin-2-yl) piperidine-2,6-dione], at IKZF1, the DC50 is above 10000 nM and the Dmax was below 20%. On IKZF2, the DC50 fell in the range of 10 to 100 nM and the Dmax was in the range of 40 to 60%.

Take `O=C1CCC(N2Cc3cc(-c4cc(CN5CCCC5)c5nccc(N6CCC6)c5n4)ccc3C2=O)C(=O)N1` (stereo not drawn) [Example 243, 3-(5-(8-(azetidin-1-yl)-4-(pyrrolidin-1-ylmethyl)-1,5-naphthyridin-2-yl)-1-oxoisoindolin-2-yl) piperidine-2,6-dione]: on IKZF1, the DC50 is 100 to 1000 nM and the Dmax lay within 20 to 40%. For the same compound, at IKZF2, the DC50 was in the range of 10 to 100 nM and the Dmax is 60 to 80%.

As for `O=C1CCC(N2Cc3cc(-c4cc(CN5CCCC5)c5nccc(NC6CC6)c5n4)ccc3C2=O)C(=O)N1` (stereo not drawn) [Example 244, 3-(5-(8-(cyclopropylamino)-4-(pyrrolidin-1-ylmethyl)-1,5-naphthyridin-2-yl)-1-oxoisoindolin-2-yl) piperidine-2,6-dione], the DC50 was above 10000 nM at IKZF1 and 10 to 100 nM on IKZF2. For the same compound, the Dmax is below 20% at IKZF1 and 40 to 60% on IKZF2.

Regarding `O=C1CCC(N2Cc3cc(-c4cc(CN5CCCC5)c5nccc(C6CCC6)c5n4)ccc3C2=O)C(=O)N1` (stereo not drawn) [Example 247, 3-(5-(8-cyclobutyl-4-(pyrrolidin-1-ylmethyl)-1,5-naphthyridin-2-yl)-1-oxoisoindolin-2-yl) piperidine-2,6-dione], at IKZF1, the DC50 was above 10000 nM and the Dmax was below 20%. At IKZF2, the DC50 fell in the range of 10 to 100 nM and the Dmax was 40 to 60%.

Source of the values: patent US20250214991A1 (Oncopia Therapeutics, Inc. d/b/a/ SK Life Science Labs, priority 2022, published 2025).
